The subject of data set [1] is opiate receptors. It counts as binding, rat. The protocol: (§1) In brief, brain membranes were prepared and triplicate samples incubated with [^3 H] labelled ligands and designated drugs for 30 minutes at 25° C., followed by filtration over Whatman GF/B filters. […] Specific binding is defined as the difference in binding in the presence and absence of levallorphan (1 uM). […] Each tissue wash included incubation for 10 min. at 37° C., centrifugation and resuspension. Irreversibility experiments included four washes before binding assays were performed, unless otherwise stated.
To determine which compounds did irreversibly bind to the receptor, membranes were incubated with the various drugs (2 μM) and then the free and reversibly bound drug washed away (Table 2).
Rat brain membranes were prepared and incubated with the above drugs (2 μM) for 30 min at 25° C. and the tissue was then washed four times as described in the text to remove reversibly bound material. The results represent the means ±s.e.m. of three separate experiments utilizing [^3 H]D-ala^2 -D-leu^5 -enkephal in (1 nM) and [^3 H]dihydromorphine (0.8 nM). […] After 15 min the solution was added to tissue.

In data set [2] the test system is high affinity, or mu1, binding sites. The settings on record: Pasternak et al.; Zhang and Pasternak; cited from earlier work.
Data set [3] relates to prolactin release. Nature of the data set: Prolactin release in vivo.
Data set [4] concerns rats. It counts as in vivo, rat. The settings on record: 50 mg/kg intravenously; for Amounts eaten, individual animals / Amounts eaten, Mean ± SEM: 1 hour free access to food, 24 hours after drug; for Amounts eaten, Mean ± SEM: saline 4.78 ± 0.42, significant at the p 0.05 level (ANOVA). The protocol: They were then food deprived for 24 hours but allowed free access to water. Five rats received saline, four received naloxone and three naloxazone. […] The animals were then given free access to food for 1 hour and their weight gain noted. Thus, eating was measured 24 hours after the administration of the drugs and after 24 hours of food deprivation.

Data set [5] deals with growth hormone release. Nature of the data set: Growth hormone release in vivo. To be noted: for effect on growth hormone release (in words): in vivo.
Data set [6] relates to opiate receptors. Nature of the data set: Irreversible opiate receptor binding/blocking (general statements). The settings on record: high doses. The protocol:
as §1

Data set [7] in a line: Reaction of hydrazones to azines in solution. To be noted: acidic aqueous solutions; absolute ethanol or water/acetic acid (1%), 15 min.
For data set [8], the system named is rats. To be noted: cited from earlier work.
The subject of data set [9] is growth hormone release. The settings on record: cited from earlier work.
Data set [10] concerns prolactin release. The settings on record: cited from earlier work.
For data set [11] the following is noted: currently available agents; cited from earlier work.

Where “and” joins values, the source holds several entries; their conditions need not be identical. Identical values can stand only once. Entries after “also recorded” stand apart in the source; their conditions may differ.

Regarding `C=CCN1CCC23c4c5ccc(O)c4OC2C(=NN)CCC3(O)C1C5` (stereo not shown) [Naloxazone, naloxazone], the “irreversible inhibition of [^3 H]D-ala^2 -D-leu^5 -enkephalin binding (in words)” value in the data set on opiate receptors [1] (2 μM) is reported as “neither naloxazone nor oxymorphazone irreversibly inhibited the binding”. Further, in the data set on opiate receptors [1] (compound 2 μM, 30 min 25° C., four washes, ligand 1 nM, mean ± s.e.m. of three experiments), the “Change in Binding (Percent), [^3 H]D-ala^2 -D-leu^5 -enkephalin” value is recorded as “+15 ± 5%”. Also, in data set [2], the “blocking opiate analgesia / effect on opiate-induced lethality (in words)” value is given as “blocking opiate analgesia with little effect on other classes of binding sites or opiate-induced lethality”. For the same compound, the “effect on basal levels of prolactin, naloxazone (in words)” value in the data set on prolactin release [3] (basal levels) is reported as “significant reduction in the basal levels of the drugs”. Further, in the data set with prolactin release [3] (in vivo), the “depression of morphine-induced release of prolactin” value is reported as “over 80%” and the “effect on prolactin release (in words)” value is listed as “selectively lowering prolactin release”. In addition, in the data set with rats [4], the “effect on feeding (in words)” value is recorded as “significant effect as an appetite suppressant”; the “Amounts eaten, individual animals” value was 3.3 grams and 2.4 grams and 3.5 grams; the “Amounts eaten, Mean ± SEM” value worked out at 3.07 ± 0.34 grams. For the same compound, the “effect on basal levels of growth hormone, naloxazone (in words)” value in the data set on growth hormone release [5] (basal levels) is listed as “significant reduction in the basal levels of the drugs”. Moreover, the “effect on growth hormone release (in words)” value in the data set with growth hormone release [5] is given as “actually increased; also recorded: without effecting growth hormone release elicited by morphine”. In addition, in the data set with opiate receptors [6], the “dose for irreversible blockade of opiate receptor binding (naloxazone)” value amounted to 2 µM. Besides, the “stability in solution: reaction to azine (in words)” value in [7] was “no azine formation could be detected”.

As for `C=CCN1CC[C@]23c4c5ccc(O)c4O[C@H]2C(=O)CC[C@@]3(O)[C@H]1C5` [Naloxone, naloxone], the “suppression of eating behavior (known)” value in the data set on rats [8] is reported as “effectively suppress eating behavior in rats”. Further, in the data set with prolactin release [3] (in vivo), the “effect on prolactin release (in words)” value was “inhibits morphine's release of both hormones”. Besides, in the data set with rats [4], the “effect on feeding (in words)” value is given as “inability of naloxone to effect feeding behavior”; the “Amounts eaten, individual animals” value was 4.1 grams and 5.3 grams and 4.4 grams and 3.7 grams; the “Amounts eaten, Mean ± SEM” value is listed as 4.38 ± 0.34 grams. The “effect on basal levels of growth hormone, naloxone (in words)” value in the data set on growth hormone release [9] is “lowering of the basal levels of prolactin and growth hormone”. Also, in the data set on growth hormone release [5], the “effect on growth hormone release (in words)” value is recorded as “inhibits morphine's release of both hormones”. Also, in the data set on prolactin release [10], the “effect on basal levels of prolactin, naloxone (in words)” value is “lowering of the basal levels of prolactin and growth hormone”. Further, in [11], the “half-life (in words)” value is on record as “short half-life”.

The record behind these values is patent US4803208A, “Opiate agonists and antagonists” (Sloan-Kettering Institute For Cancer Research, priority 1985, dated 1989).
